Source: BindingDB's records for doi:10.1016/S0960-894X(97)00368-5 (1997)

Target: Human cytomegalovirus protease (assemblin)
Test: Inhibitory concentration against human cytomegalovirus protease variant expressing a beta galactosidase reporter gene

Row | Structure (SMILES) | IC50 [nM]
1 | Cc1c(NC(=O)OC(C)(C)C)ccc2nc(N[C@H](C)c3ccccc3)oc(=O)c12 [[5-Methyl-4-oxo-2-(1-phenyl-ethylamino)-4H-benzo[d][1,3]oxazin-6-yl]-carbamic acid tert-butyl ester] | 1300
2 | Cc1cccc2nc(N[C@H](C)c3ccc(Br)cc3)oc(=O)c12 [2-[1-(4-Bromo-phenyl)-ethylamino]-5-methyl-benzo[d][1,3]oxazin-4-one] | 460
3 | Cc1c(NC(=O)CN(C)C)ccc2nc(N[C@H](C)c3ccccc3)oc(=O)c12 [2-Dimethylamino-N-[5-methyl-4-oxo-2-(1-phenyl-ethylamino)-4H-benzo[d][1,3]oxazin-6-yl]-acetamide] | 2200
4 | Cc1c(NC(=O)c2ccccn2)ccc2nc(N[C@H](C)c3ccccc3)oc(=O)c12 [Pyridine-2-carboxylic acid [5-methyl-4-oxo-2-(1-phenyl-ethylamino)-4H-benzo[d][1,3]oxazin-6-yl]-amide] | 720
5 | Cc1cccc2nc(NC(C)C)oc(=O)c12 [2-Isopropylamino-5-methyl-benzo[d][1,3]oxazin-4-one] | 4000
